Source: patent US20240398764A1, “METHODS OF TREATING DISEASES ASSOCIATED WITH SENESCENT CELL ACCUMULATION” (University of Florida Research Foundation, Incorporated, priority 2021, published 2024)

Columns and labels:
Bcl-xL [1] = biological target: T1, Bcl-xL (Mus musculus, UniProt Q64373); test: Bcl-xL level in livers of STZ/HFD mice (Western blotting); assay type: in vivo, C57BL6 mice; conditions: 5 mg/kg twice a week IP, postnatal day 90, vs vehicle
T1 construct: Western blot of Bcl-xl levels in the livers of STZ/HFD mice treated with 753b or vehicle control; from tissue; host or cells: liver of C57BL6 mice (STZ plus high fat diet)
T1 sequence (Q64373 whole entry): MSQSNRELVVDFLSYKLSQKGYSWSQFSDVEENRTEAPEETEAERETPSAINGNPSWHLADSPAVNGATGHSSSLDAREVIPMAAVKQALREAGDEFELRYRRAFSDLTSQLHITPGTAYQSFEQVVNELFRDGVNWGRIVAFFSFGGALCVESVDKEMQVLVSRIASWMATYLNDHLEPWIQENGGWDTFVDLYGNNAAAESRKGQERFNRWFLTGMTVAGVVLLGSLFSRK
Description: GAPDH was used as a loading control. FIG. 6B depicts the relative expression of p16 and p21 at mRNA levels in the livers of STZ/HFD mice treated with 753b or vehicle control. *p<0.05. FIGS. 6C to 6D show senescence-associated beta-galactosidase (SA-β-gal) stained livers of STZ/HFD mice treated with vehicle control (FIG. 6C) or 753b (FIG. 6D). Scale bar: […].
Experimental design: C57BL6 mice were injected with Streptozotocin (STZ) at postnatal day 2 to induce diabetes and then fed with HFD from postnatal day 30 till the end of the experiments (FIG. 5). Half of the mice started receiving vehicle and the others receiving 753b (5 mg/kg) treatment on postnatal day 45 twice a week by IP injection till the end of the experiments. A group of the mice were euthanized at postnatal day 90 (or day 45 after the initiation of the treatment) for analysis of senescent cell accumulation and steatosis. Another group of the mice were euthanized at postnatal day 150 (or day 105 after the initiation of the treatment) for analysis of liver fibrosis and cancer.
753b effectively clears senescent cells induced by STZ/HFD in the liver. The liver tissues were collected from mice at postnatal day 90 (p90 or 45 days after treatment) for the analyses. […] Data were means±SD of triplicate experiments.

[2] = Tumorigenesis in the STAM model (MRI); assay type: in vivo, C57BL6 mice; conditions: STZ/HFD mice; 5 mg/kg twice a week IP; postnatal day 150
Description: FIG. 10A depicts images of livers of STZ/HFD mice treated with vehicle control or 753b (top) and MRIs of T1 pre-contrast and T2-weighted images of corresponding livers (bottom). Tumor lesions are indicated by yellow arrows. […] FIG. 10C depicts a Western blot of Gpc3 in livers of STZ/HFD mice treated with vehicle control or 753b. Actin was used as a loading control.
Experimental design: C57BL6 mice were injected with Streptozotocin (STZ) at postnatal day 2 to induce diabetes and then fed with HFD from postnatal day 30 till the end of the experiments (FIG. 5). Half of the mice started receiving vehicle and the others receiving 753b (5 mg/kg) treatment on postnatal day 45 twice a week by IP injection till the end of the experiments. […]
All the analyses were done in mice at postnatal day 150 (p150 or 105 days after treatment). […] Tumor lesions were determined based on hypointense signals in T1 but hyperintense signals in T2-weighted image (FIG. 10A). Tumor number and volume was quantified based on MRI T1 and T2-weighted images. Values were expressed as means±SD from 5 mice per group. Data for each mouse were analyzed based on 5-6 slices of images that covered whole liver lobes (FIG. 10B). […] Quantification analysis was performed for the ratio between liver and body weight in the STZ/HFD treated livers that were exposed to 753b or control compound (FIG. 10D). […]

Bcl-xl [3] = biological target: Bcl-xl (Homo sapiens, UniProt Q07817); test: Immunoblot of Bcl-xl degradation in HEK293T cells; assay type: cell-based; parameters: endogenous in cells; conditions: different concentrations for 16 h, or 1 μM for various time points
Chain of Bcl-xl (Q07817 whole entry): as the sequence (Q64373 whole entry) above, with E40G, A43S, R45M, S168A, D193E counted along it
Description: FIG. 1A depicts immunoblots showing degradation of Bcl-xl and Bcl-2 in HEK293T cells treated with various concentrations of 753b for 16 hours. FIG. 1B depicts immunoblots showing degradation of Bcl-xl and Bcl-2 in HEK293T cells treated with 1 μM 753b for various durations. 3-actin was used as a loading control.
The potency of 753b in degrading Bcl-xl/2 was evaluated in 293T cells by immunoblots after the cells were treated with different concentrations of 753b for 16 h (FIG. 1A) or after the cells were treated with 1 μM 753b for various time points as indicated (FIG. 1B). Representative immunoblots are shown, and β-actin was used as a loading control.

SMILES: Cc1ncsc1-c1ccc([C@H](C)NC(=O)[C@@H]2C[C@@H](O)CN2C(=O)[C@@H](NC(=O)CCCCCCC(=O)N2CCN(C[C@]3(C)CCC(c4ccc(Cl)cc4)=C(CN4CCN(c5ccc(C(=O)NS(=O)(=O)c6ccc(N[C@H](CCN7CCOCC7)CSc7ccccc7)c(S(=O)(=O)C(F)(F)F)c6)cc5)CC4)C3)CC2)C(C)(C)C)cc1 [Compound 753b]
- Bcl-xL accumulation in the livers (Bcl-xL [1]): reduced Bcl-xL accumulation
- Tumorigenesis in the liver [2]: reduces tumorigenesis
- Bcl-xl degradation (Bcl-xl [3]): degrades Bcl-xl and Bcl-2 in a dose- and time-dependent manner
